Holding throughout (set-up): key: Active: Compounds with an IC50 value less than 30 μM were deemed to be active.; Not Active: Compounds with an IC50 value less than 30 μM were deemed to be active
The target of assay [1] is T1, Brd4 bromodomain 1 (BRD4(1)) (Homo sapiens, UniProt O60885).
T1 construct: Illustrative results with the first bromodomain of Brd4; made in house; host or cells: E. coli BL21 (DE3)
In words: Inhibition of tetra-acetylated histone H4 binding to Brd4 bromodomain 1 (TR-FRET). The conditions noted are these: tetra-acetylated histone H4 peptide, active = IC50 <30 μM. In outline: (§1)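 N-terminally His-tagged bromodomains (200 nM), expressed in E. coli, were incubated with biotinylated tetra-acetylated histone H4 peptide (25-50 nM), Eu-cryptate streptavidin and XL665 anti-His antibody in HEPES pH 7.4 buffer with KF, 0.2% DMSO, 2 h at room temperature. Inhibition read as decreased 665/620 nm TR-FRET; IC50 from dose-response curves.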
Background: In TR-FRET formats the signal depends on donor and acceptor labels being close together.

The target of assay [2] is T2, second bromodomain of Brd2 (BRD2(2)) (Homo sapiens, UniProt P25440).
T2 construct: made in house; host or cells: E. coli BL21 (DE3)
T2 sequence (P25440 344-453 limits assumed): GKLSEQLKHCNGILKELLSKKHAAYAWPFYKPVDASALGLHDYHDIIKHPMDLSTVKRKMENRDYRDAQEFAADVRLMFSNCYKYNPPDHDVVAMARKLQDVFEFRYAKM
Put plainly: Inhibition of tetra-acetylated histone H4 binding to Brd2 bromodomain 2 (TR-FRET). The conditions noted are these: tetra-acetylated histone H4 peptide, active = IC50 <30 μM. The gist of the method:
as §1

A further assay relates to c-myc. Put plainly: Inhibition of c-myc expression in MV4-11 cells (mRNA, real-time PCR). The note with it: Human AML MV4-11 cells, 3 h incubation. Format: cell-based. In outline:
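MV4-11 cells (2.5×10^4) treated with compound or 0.1% DMSO for 3 h at 37 °C. c-myc mRNA measured by RT real-time PCR duplexed with cyclophilin. IC50 from dose–response curve.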
Background: Real-time PCR tracks product formation cycle by cycle.

Assay [3] deals with human AML MV-4-11 (CRL-9591) cells. In words: Inhibition of cell proliferation in MV4-11 cells. Format: cell-based. The note with it: human AML MV-4-11 cells, 72 h; active = IC50 <30 μM. The gist of the method: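 Exponentially growing MV-4-11 cells (5×10^4/well) were treated immediately with two-fold dilutions of compound from 30 μM to 0.2 μM, in triplicate, for 72 h at 37° C, 5% CO2. Viability was measured by MTS absorbance at 490 nm after 3–4 h. Proliferation relative to DMSO after blank correction gave IC50.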

The next assay deals with hIL-6 mRNA. In words: Inhibition of hIL-6 mRNA transcription in U937 cells. Format: cell-based, human. The conditions noted are these: LPS stimulation, active = IC50 <30 μM. In outline: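 U937 cells differentiated 3 days with 60 ng/mL PMA, pretreated 1 h with compound, then stimulated with 1 ug/mL E. coli LPS for 3 h at 37° C. hIL-6 mRNA quantified by one-step qRT-PCR, Ct normalized to internal control, expressed as fold induction relative to control.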

Consider `Cc1cccc(Cn2nc(-c3c(C)noc3C)ccc2=O)c1` [Example 30, 6-(3,5-Dimethylisoxazol-4-yl)-2-(3-methylbenzyl)pyridazin-3(2H)-one], for which the “FRET activity (IC50 <30 μM) BRD4(1)” value in assay [1] is recorded as “Active”. In addition, the “FRET activity (IC50 <30 μM) BRD2(2)” value in assay [2] is “Active”. Besides, the “c-myc activity (IC50 <30 μM)” value with c-myc is “Not Active”. Moreover, in assay [3], the “Cell Proliferation activity (IC50 <30 μM)” value (“Cell Proliferation activity” for short) is “Active”. Further, the “IL-6 activity (IC50 <30 μM)” value in the assay with hIL-6 mRNA was “Active”.

Consider `Cc1ccc(Cn2nc(-c3c(C)noc3C)ccc2=O)cc1` [Example 29, 6-(3,5-Dimethylisoxazol-4-yl)-2-(4-methylbenzyl)pyridazin-3(2H)-one], for which the “FRET activity (IC50 <30 μM) BRD4(1)” value in assay [1] is “Active”. The “FRET activity (IC50 <30 μM) BRD2(2)” value in assay [2] is listed as “Active”. Besides, the “c-myc activity (IC50 <30 μM)” value with c-myc is “Active”. In assay [3], the “Cell Proliferation activity” value is “Active”. Besides, the “IL-6 activity (IC50 <30 μM)” value with hIL-6 mRNA is on record as “Active”.

Turning to `COc1ccc(Nc2ccc(=O)n(Cc3ccccc3)c2)cc1OC` [Example 65, 1-Benzyl-5-((3,4-dimethoxyphenyl)amino)pyridin-2(1H)-one], in assay [1], the “FRET activity (IC50 <30 μM) BRD4(1)” value is reported as “Active”. Moreover, the “FRET activity (IC50 <30 μM) BRD2(2)” value in assay [2] is “Active”. Moreover, the “c-myc activity (IC50 <30 μM)” value in the assay on c-myc is “Active”. Moreover, in assay [3], the “Cell Proliferation activity” value is “Active”. In addition, the “IL-6 activity (IC50 <30 μM)” value in the assay on hIL-6 mRNA is “Active”.

As for `Cc1noc(C)c1-c1ccc(=O)n(Cc2ccccc2C#N)n1` [Example 24, 2-((3-(3,5-Dimethylisoxazol-4-yl)-6-oxopyridazin-1(6H)-yl)methyl)benzonitrile], in assay [1], the “FRET activity (IC50 <30 μM) BRD4(1)” value is “Active”. In addition, the “FRET activity (IC50 <30 μM) BRD2(2)” value in assay [2] is “Active”. Also, in the assay on c-myc, the “c-myc activity (IC50 <30 μM)” value was “Not Active”. The “Cell Proliferation activity” value in assay [3] is listed as “Active”. The “IL-6 activity (IC50 <30 μM)” value in the assay with hIL-6 mRNA was “Not Active”.

In the case of `Cc1noc(C)c1-c1ccc(=O)n(Cc2cccc(F)c2)c1` [Example 42, 5-(3,5-Dimethylisoxazol-4-yl)-1-(3-fluorobenzyl)pyridin-2(1H)-one], in assay [1], the “FRET activity (IC50 <30 μM) BRD4(1)” value is reported as “Active”. For the same compound, in assay [2], the “FRET activity (IC50 <30 μM) BRD2(2)” value was “Active”. Moreover, the “c-myc activity (IC50 <30 μM)” value with c-myc was “Active”. In addition, the “Cell Proliferation activity” value in assay [3] was “Active”. In the assay on hIL-6 mRNA, the “IL-6 activity (IC50 <30 μM)” value is on record as “Active”.

As for `Cc1noc(C)c1-c1cc(C)c(=O)n(Cc2ccccc2F)n1` [Example 84, 6-(3,5-Dimethylisoxazol-4-yl)-2-(2-fluorobenzyl)-4-methylpyridazin-3(2H)-one], the “FRET activity (IC50 <30 μM) BRD4(1)” value in assay [1] is “Active”. Moreover, the “FRET activity (IC50 <30 μM) BRD2(2)” value in assay [2] is given as “Active”. In addition, the “c-myc activity (IC50 <30 μM)” value in the assay with c-myc is given as “Not Active”. In addition, in assay [3], the “Cell Proliferation activity” value is given as “Not Active”. In addition, in the assay with hIL-6 mRNA, the “IL-6 activity (IC50 <30 μM)” value was “Active”.

For the compound `Cc1noc(C)c1-c1ccc(=O)n([C@@H](C)c2ccccc2)c1` [Example 133, (S)-5-(3,5-Dimethylisoxazol-4-yl)-1-(1-phenylethyl)pyridin-2(1H)-one], the “FRET activity (IC50 <30 μM) BRD4(1)” value in assay [1] is “Active”. Moreover, in assay [2], the “FRET activity (IC50 <30 μM) BRD2(2)” value is given as “Active”. In the assay with c-myc, the “c-myc activity (IC50 <30 μM)” value is on record as “Active”. Further, the “Cell Proliferation activity” value in assay [3] is “Not Active”. Also, in the assay on hIL-6 mRNA, the “IL-6 activity (IC50 <30 μM)” value is “Not Active”.

As for `Cc1noc(C)c1-c1cc(-c2ccc(F)cc2)c(=O)n(Cc2ccccc2)c1` [Example 70, 1-Benzyl-5-(3,5-dimethylisoxazol-4-yl)-3-(4-fluorophenyl)pyridin-2(1H)-one], the “FRET activity (IC50 <30 μM) BRD4(1)” value in assay [1] is listed as “Active”. For the same compound, the “FRET activity (IC50 <30 μM) BRD2(2)” value in assay [2] was “Active”. Also, the “c-myc activity (IC50 <30 μM)” value in the assay with c-myc was “Active”. The “Cell Proliferation activity” value in assay [3] is recorded as “Active”. Further, the “IL-6 activity (IC50 <30 μM)” value in the assay on hIL-6 mRNA is on record as “Active”.

Regarding `Cc1noc(C)c1-c1ccc(=O)n(Cc2c(F)cccc2Cl)n1` [Example 96, 2-(2-Chloro-6-fluorobenzyl)-6-(3,5-dimethylisoxazol-4-yl)pyridazin-3(2H)-one], the “FRET activity (IC50 <30 μM) BRD4(1)” value in assay [1] is reported as “Active”. In assay [2], the “FRET activity (IC50 <30 μM) BRD2(2)” value is “Active”. The “c-myc activity (IC50 <30 μM)” value in the assay on c-myc is “Active”. Moreover, the “Cell Proliferation activity” value in assay [3] is on record as “Active”. Besides, in the assay on hIL-6 mRNA, the “IL-6 activity (IC50 <30 μM)” value is “Active”.

`Cc1ccccc1Cn1nc(-c2c(C)noc2C)ccc1=O` [Example 28]: in assay [1], the “FRET activity (IC50 <30 μM) BRD4(1)” value is given as “Active”. Also, in assay [2], the “FRET activity (IC50 <30 μM) BRD2(2)” value is given as “Active”. In addition, in the assay on c-myc, the “c-myc activity (IC50 <30 μM)” value is given as “Active”. Also, the “Cell Proliferation activity” value in assay [3] is on record as “Active”. Further, the “IL-6 activity (IC50 <30 μM)” value in the assay with hIL-6 mRNA was “Active”.

`Cc1cccc(Cn2cc(-c3c(C)noc3C)ccc2=O)c1` [Example 122, 5-(3,5-Dimethylisoxazol-4-yl)-1-(3-methylbenzyl)pyridin-2(1H)-one]: the “FRET activity (IC50 <30 μM) BRD4(1)” value in assay [1] is on record as “Active”. Further, the “FRET activity (IC50 <30 μM) BRD2(2)” value in assay [2] is listed as “Active”. Moreover, the “c-myc activity (IC50 <30 μM)” value with c-myc is listed as “Active”. The “Cell Proliferation activity” value in assay [3] was “Active”. In addition, in the assay with hIL-6 mRNA, the “IL-6 activity (IC50 <30 μM)” value was “Active”.

As to `Cc1noc(C)c1-c1ccc(=O)n(Cc2ccc(Cl)cc2Cl)c1` [Example 136, 1-(2,4-Dichlorobenzyl)-5-(3,5-dimethylisoxazol-4-yl)pyridin-2(1H)-one], in assay [1], the “FRET activity (IC50 <30 μM) BRD4(1)” value is on record as “Active”. In addition, in assay [2], the “FRET activity (IC50 <30 μM) BRD2(2)” value was “Active”. Moreover, the “c-myc activity (IC50 <30 μM)” value in the assay on c-myc is “Active”. Also, the “Cell Proliferation activity” value in assay [3] is listed as “Active”. The “IL-6 activity (IC50 <30 μM)” value in the assay on hIL-6 mRNA was “Active”.

Regarding `Cc1noc(C)c1-c1cc(C)c(=O)n(Cc2ccccc2)n1` [Example 21, 2-Benzyl-6-(3,5-dimethylisoxazol-4-yl)-4-methylpyridazin-3(2H)-one], the “FRET activity (IC50 <30 μM) BRD4(1)” value in assay [1] is given as “Active”. Besides, the “FRET activity (IC50 <30 μM) BRD2(2)” value in assay [2] is “Active”. In the assay on c-myc, the “c-myc activity (IC50 <30 μM)” value was “Active”. Besides, the “Cell Proliferation activity” value in assay [3] is given as “Not Active”. Besides, in the assay with hIL-6 mRNA, the “IL-6 activity (IC50 <30 μM)” value is reported as “Active”.

In the case of `Cc1noc(C)c1-c1ccc(=O)n(Cc2ccccc2F)n1` [Example 93, 6-(3,5-Dimethylisoxazol-4-yl)-2-(2-fluorobenzyl)pyridazin-3(2H)-one], the “FRET activity (IC50 <30 μM) BRD4(1)” value in assay [1] is reported as “Active”. Also, the “FRET activity (IC50 <30 μM) BRD2(2)” value in assay [2] is listed as “Active”. The “c-myc activity (IC50 <30 μM)” value with c-myc is reported as “Not Active”. Moreover, the “Cell Proliferation activity” value in assay [3] is on record as “Active”. The “IL-6 activity (IC50 <30 μM)” value in the assay on hIL-6 mRNA is reported as “Not Active”.

For the compound `Cc1noc(C)c1-c1ccc(=O)n(Cc2ccccc2C(F)(F)F)n1` [Example 94, 6-(3,5-Dimethylisoxazol-4-yl)-2-(2-(trifluoromethyl)benzyl)pyridazin-3(2H)-one], the “FRET activity (IC50 <30 μM) BRD4(1)” value in assay [1] is “Active”. Also, the “FRET activity (IC50 <30 μM) BRD2(2)” value in assay [2] is “Active”. The “c-myc activity (IC50 <30 μM)” value in the assay on c-myc is recorded as “Not Active”. For the same compound, the “Cell Proliferation activity” value in assay [3] is reported as “Active”. The “IL-6 activity (IC50 <30 μM)” value in the assay on hIL-6 mRNA was “Not Active”.

`Cc1noc(C)c1-c1ccc(=O)n(C(C)c2ccccc2F)n1` (centres unmarked) [Example 95, 6-(3,5-Dimethylisoxazol-4-yl)-2-(1-(2-fluorophenyl)ethyl)pyridazin-3(2H)-one]: the “FRET activity (IC50 <30 μM) BRD4(1)” value in assay [1] is listed as “Active”. Moreover, in assay [2], the “FRET activity (IC50 <30 μM) BRD2(2)” value was “Active”. For the same compound, the “c-myc activity (IC50 <30 μM)” value in the assay on c-myc is “Not Active”. The “Cell Proliferation activity” value in assay [3] is given as “Not Active”. In addition, in the assay on hIL-6 mRNA, the “IL-6 activity (IC50 <30 μM)” value is “Active”.

The values are drawn from US9271978B2 (Zenith Epigenetics Corp., priority 2012, dated 2016).
